Several values for one entry are separate records, joined by “and”; a condition that tells them apart may be missing. Equal entries are not always repeated.
Assays:
GK rats [1] = assay: 13C-labeled glucose tolerance test (tissue 13C-glycogen); format: in vivo; settings: GK rat, 13C-GTT after sub-chronic treatment; vs MK-8666 or vehicle
Procedure: On day 0, GK rats were selected and sorted into treatment groups based on ambient glucose measured via glucometer at 1 h post lights on. MK-8666 at 30 mg/kg was administered in feed (Research Diets) and provided ad lib on day 0. On days 1–6, rats were dosed via oral gavage (PO) at a volume of 5 ml/kg daily at approximately 12:30 PM with either vehicle (0.5% methylcellulose) or AP1 at 10 mg/kg. Rats from the MK-8666 group were administered vehicle PO at this time. On day 7, ambient glucose was measured 1 hr post lights on and food was removed. After approximately 5 hrs fasting, glucose was measured at time = - 60 min, followed by PO administration of vehicle or AP1. […] Blood glucose was then measured at t = 20, 40, 60, 120 minutes post challenge. […]
Glycogen is a primary site of glucose disposal in both liver and muscle; however glycogen was not preserved in our tissue extraction protocol. To quantify tissue 13C-glycogen, a separate piece of tissue from each sample was analyzed. […] The resulting glycogen-derived glucose solution was analyzed for total glucose using a glucose oxidase / horseradish peroxidase assay kit and fluorescence-based product detection according to the manufacturers’ instructions (BioVision Glycogen Assay Kit, Milpitas, CA).

GK rats [2] = assay: Endogenous glucose production in vivo (2H/13C dual tracer); parameters: species or system rat;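 as to Glucose production, EGP Total: micromoles per kg body weight per minute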;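 as to Glucose production, Glycerol: absolute flux in micromoles per kg per minute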;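 as to Glucose production, Glycogen: absolute flux in micromoles per kg per minute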;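 as to Glucose production, TCA: absolute flux in micromoles per kg per minute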
Procedure: To evaluate the effects of the GPR40 partial and AgoPAM compounds on EGP in vivo, a 2H/13C dual tracer approach was used to calculate EGP and its contributing sources. Following the chronic treatments described above, 0.9% NaCl salinated deuterium oxide (D2O, Sigma-Aldrich, St. Louis, MO) was administered to all animals via intraperitoneal (IP) injection at dose volume of 20 ml/kg at 1 hr post lights on. Animals were then placed in clean cages and food was removed. After a 5 hour fast, blood glucose was measured and animals were dosed with 50 mg/kg [U-13C] glucose (Sigma-Aldrich, St. Louis, MO) IP at 5 ml/kg. Blood was collected via tail snip at time points from 60–150 min post treatment to measure blood glucose (via glucometer) as well as endogenous (12C-glucose) and exogenous (13C-glucose) via GCMS. Following the last tail blood collection, rats were anesthetized with isoflurane and cardiac blood was collected into K2EDTA tubes (Becton, Dickinson and Co., Franklin Lakes, NJ).
The serially collected blood samples were analyzed for 13C-glucose enrichment using GC-MS analysis. The % 13C glucose enrichments were then combined with the total glucose readings to calculate the concentration of 13C-glucose, and these values were modeled with a two-compartment model of whole body glucose metabolism to calculate the average EGP for the period from 0–150 minutes.
Terminal blood samples were analyzed for relative 2H enrichment in plasma glucose using the monoacetone glucose method. Briefly, samples were extracted with 70% perchloric acid at a ratio of 50 μl perchloric acid per 1 ml plasma and centrifuged at 25,000 rcf for 10 min at 4°C. The supernatant was collected and the pH was adjusted to 6–8 using aqueous KOH. The samples were then lyophilized overnight. To convert plasma glucose to monoacetone glucose (MAG), acetone and concentrated sulfuric acid were added to the lyophilized samples and stirred for 4 hours at room temperature. Water was then added and the pH adjusted to 2.0 with 3M Na2CO3. Samples were stirred moderately for 18 hours at room temperature, the pH was adjusted to 7 with 3M Na2CO3, and the samples were completely dried by speed vacuum concentration. The resulting MAG samples were then extracted in hot ethyl acetate, dried overnight under a stream of N2 gas, and purified using Discovery DSC-18 SPE columns (6 ml, 1 g bed weight). For the SPE protocol, MAG samples were reconstituted in 3 ml water and passed over the columns which were pre-washed with 2 ml methanol. The columns were rinsed twice with 1 ml water and the MAG was eluted with 5% acetonitrile. The acetonitrile eluent was then transferred to a glass scintillation vial and freeze dried. Purified MAG samples were solubilized in 180 μl 90% acetonitrile for 2H NMR analysis which was performed using the lock channel of a 950 MHz Bruker NMR spectrometer (David H Murdock Research Institute, DHMRI Kannapolis, NC). Acquisition parameters were as follows: 90° pulse, D1 = 1 s, 1H broadband decoupling, NS = 3600, acquisition time ~ 1 hr. The 2H NMR spectra of the MAG samples were then analyzed using Matlab (The Mathworks Inc, Natick, MA) to model the NMR peaks with a Lorentzian lineshape, and the results were used to calculate integrals for each of the seven NMR resonances in the MAG spectrum. Peaks 2, 5, and 6s were then used to calculate the relative sources of EGP (i.e. gluconeogenesis from TCA cycle substrates, glucose production from triose phosphates, and glycogenolysis) and these values were combined with the total EGP measurement to calculate absolute fluxes of glucose production.

[3] = GK rats, 30 mpk, individual animal values (data for Fig 8), 30 mg/kg

Structure (SMILES)	skeletal muscle 13C-glycogen levels (GK rats [1])	endogenous glucose production (EGP) (GK rats [2]; GK rat, following chronic treatment)	Glucose production, EGP Total (GK rats [2]; [3])	Glucose production, Glycerol (GK rats [2]; [3])	Glucose production, Glycogen (GK rats [2]; [3])	Glucose production, TCA (GK rats [2]; [3])
COc1ccc(F)c(-c2ccc([C@@H]3CCc4ccc([C@H](C5CC5)[C@H](C)C(=O)O)cc4O3)cc2)c1 [AP1]	increased					
Cc1cc(OCCCS(C)(=O)=O)cc(C)c1-c1cccc(COc2cc3c(cn2)[C@H]2[C@@H](C3)[C@@H]2C(=O)O)c1 [MK-8666]		reduced	47.3366 µmol/kg/min and 49.7015 µmol/kg/min and 23.1675 µmol/kg/min and 46.5921 µmol/kg/min and 49.3944 µmol/kg/min and 59.3105 µmol/kg/min and 53.4963 µmol/kg/min	8.397 µmol/kg/min and 6.008 µmol/kg/min and 2.752 µmol/kg/min and 6.734 µmol/kg/min and 8.91 µmol/kg/min and 9 µmol/kg/min and 9.76 µmol/kg/min	15.2782 µmol/kg/min and 19.9182 µmol/kg/min and 7.082 µmol/kg/min and 20.1227 µmol/kg/min and 18.1009 µmol/kg/min and 21.3139 µmol/kg/min and 17.6544 µmol/kg/min	23.6618 µmol/kg/min and 23.7752 µmol/kg/min and 13.3332 µmol/kg/min and 19.7357 µmol/kg/min and 22.3838 µmol/kg/min and 28.9962 µmol/kg/min and 26.0816 µmol/kg/min
